Experiments:
[1] = biological target: T1, Zea mays EPSPS variant Zm-H6 (868-H6) (Zea mays, UniProt O24566, A1R/A3W/A415G/A71Q/D401G/E301S/E390G/G101A/I207L/K83R/L97C/T278A/T360S/T440Q/V437R); assay: Rapid two-rate method for (kcat/KM)*KI, Zm-H6; format: biochemical; details: [E] 0.07 uM, [Gly] 1000 uM
T1 sequence (O24566 with tags, fused parts or gaps A1R/A3W/A71Q/K83R/L97C/G101A/I207L/T278A/E301S/T360S/E390G/D401G/A415G/V437R/T440Q): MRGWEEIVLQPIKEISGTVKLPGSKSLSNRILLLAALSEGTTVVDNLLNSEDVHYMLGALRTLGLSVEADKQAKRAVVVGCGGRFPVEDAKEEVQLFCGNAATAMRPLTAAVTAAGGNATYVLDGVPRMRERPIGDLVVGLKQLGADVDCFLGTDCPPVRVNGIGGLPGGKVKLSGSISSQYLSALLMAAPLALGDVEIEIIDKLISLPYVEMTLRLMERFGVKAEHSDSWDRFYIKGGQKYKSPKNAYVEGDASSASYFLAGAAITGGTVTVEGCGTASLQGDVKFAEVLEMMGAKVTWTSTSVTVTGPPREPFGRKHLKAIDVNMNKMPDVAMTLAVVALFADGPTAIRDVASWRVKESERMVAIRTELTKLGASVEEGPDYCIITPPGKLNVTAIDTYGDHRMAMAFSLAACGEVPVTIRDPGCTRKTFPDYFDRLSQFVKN
From the text: In the Michaelis-Menten equation for steady state reaction velocity with competitive inhibition, the term (kcat/KM)*KI cannot be isolated due to the KM and [S] terms in the denominator. However, if two rate measurements are made at different inhibitor concentrations, those terms can be eliminated by subtraction and (kcat/KM)*KI isolated, as follows:
[formula] where v0 and v1 are initial velocities without and with inhibitor but at the same substrate and enzyme concentrations. Although Equations 2 and 3 are equally valid, to generate the data in Table 1, rate measurement was performed with and without inhibitor using Equation 3. Source of Reagents, Enzyme and Variants
EPSPS activity was determined by quantifying the phosphate generated by the reaction. Release of phosphate was coupled to reaction with MESG, catalyzed by purine-nucleoside phosphorylase, using standard methods. The absorbance change that occurs was monitored continuously at 360 nm, where the extinction is 11,200 M-1 cm-1, with a Spectramax plate reader (Molecular Devices). […] The enzyme concentration was adjusted so as to generate sufficient signal without exceeding the limit for linear initial reaction rates. […]
There are several practical considerations for accurately estimating (kcat/KM)*KI with the rapid method. […] Conditions can be set so that variants with a pre-determined minimal fitness level are accurately quantified. […]

Bacterial EPSPS (CP4) = Bacterial EPSPS (CP4) (Agrobacterium sp., UniProt Q9R4E4); assay: Substrate saturation kinetic analysis with glyphosate, bacterial EPSPS (CP4)
Sequence of Bacterial EPSPS (CP4) (Q9R4E4 whole entry): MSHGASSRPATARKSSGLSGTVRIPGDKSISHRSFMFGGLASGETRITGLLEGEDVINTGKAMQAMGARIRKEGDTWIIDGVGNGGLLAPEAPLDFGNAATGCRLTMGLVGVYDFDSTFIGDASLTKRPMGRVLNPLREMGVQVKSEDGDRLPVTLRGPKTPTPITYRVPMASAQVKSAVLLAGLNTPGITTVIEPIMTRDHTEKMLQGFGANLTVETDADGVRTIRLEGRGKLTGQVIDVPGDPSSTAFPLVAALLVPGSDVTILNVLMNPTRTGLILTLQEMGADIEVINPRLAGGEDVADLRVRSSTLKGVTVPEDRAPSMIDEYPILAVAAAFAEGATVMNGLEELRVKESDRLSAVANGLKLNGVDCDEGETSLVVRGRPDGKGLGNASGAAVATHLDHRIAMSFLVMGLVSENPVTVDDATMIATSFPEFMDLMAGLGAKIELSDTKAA
From the text: There are several practical considerations for accurately estimating (kcat/KM)*KI with the rapid method. […] If inhibition is too little, v0-vi will be small, and the error in the multiplier vi×v0/(v0-vi) will be large. […] High substrate concentration obscures sensitivity to the inhibitor and reduces stringency for capturing improvements in KM.

## O=C(O)CNCP(=O)(O)O [glyphosate, N-phosphonomethylglycine]
[1]
  (kcat/KM)*KI: 4013
Bacterial EPSPS (CP4)
  Ki: 1410 µM
Bacterial EPSPS (CP4); substrate saturation, Bacterial EPSPS / CP4
  (kcat/KM)*KI: 108900

— patent publication US11549123B2, “Plant EPSP synthases and methods of use” (PIONEER HI-BRED INTERNATIONAL, INC., priority 2015, dated 2023)
